The target in experiment [1] is T1, HCV NS3/4A protease complex, H77 strain (Hepatitis C virus genotype 1a, UniProt P27958, C1454S/C1711G).
T1 construct: recombinant HCV NS3/4A protease complex (amino acids 1027 to 1711) for these strains; inferred from pET21b vector and Ni-NTA purification; made in house; host or cells: Escherichia coli BL21 (DE3), pET21b
As to the kind of experiment: FRET peptide assay to monitor HCV NS3/4A proteolytic activity (H77 strain). The class given is biochemical. From the text:
(§1) Generation of Recombinant HCV NS3/4A Protease Complex
(§2) HCV NS3 protease complexes, derived from the BMS strain, H77 strain or J4L6S strain, were generated, as described below. These purified recombinant proteins were generated for use in a homogeneous assay (see below) to provide an indication of how effective compounds of the present disclosure would be in inhibiting HCV NS3 proteolytic activity.
(§3) Serum from an HCV-infected patient was obtained from Dr. T. Wright, San Francisco Hospital. An engineered full-length cDNA (compliment deoxyribonucleic acid) template of the HCV genome (BMS strain) was constructed from DNA fragments obtained by reverse transcription-PCR (RT-PCR) of serum RNA (ribonucleic acid) and using primers selected on the basis of homology between other genotype 1a strains. From the determination of the entire genome sequence, a genotype 1a was assigned to the HCV isolate according to the classification of Simmonds et al. (See P Simmonds, K A Rose, S Graham, S W Chan, F McOmish, B C Dow, E A Follett, P L Yap and H Marsden, J. Clin. Microbiol., 31(6), 1493-1503 (1993)). […]

For experiment [2], the target named is T2, HCV NS3/4A protease complex, J4L6S strain (Hepatitis C virus genotype 1b, UniProt O92972, C1454S/C1711G).
T2 construct: recombinant HCV NS3/4A protease complex (amino acids 1027 to 1711) for these strains; inferred from pET21b vector and Ni-NTA purification; made in house; host or cells: Escherichia coli BL21 (DE3), pET21b
As to the kind of experiment: FRET peptide assay to monitor HCV NS3/4A proteolytic activity (J4L6S strain). Format: biochemical.
Text: as §1, §2, §3

Each structure is given as a SMILES string. pIC50: −log10 of the molar value.

T2 sequence (O92972 1027-1711 C1454S/C1711G, one chain of several): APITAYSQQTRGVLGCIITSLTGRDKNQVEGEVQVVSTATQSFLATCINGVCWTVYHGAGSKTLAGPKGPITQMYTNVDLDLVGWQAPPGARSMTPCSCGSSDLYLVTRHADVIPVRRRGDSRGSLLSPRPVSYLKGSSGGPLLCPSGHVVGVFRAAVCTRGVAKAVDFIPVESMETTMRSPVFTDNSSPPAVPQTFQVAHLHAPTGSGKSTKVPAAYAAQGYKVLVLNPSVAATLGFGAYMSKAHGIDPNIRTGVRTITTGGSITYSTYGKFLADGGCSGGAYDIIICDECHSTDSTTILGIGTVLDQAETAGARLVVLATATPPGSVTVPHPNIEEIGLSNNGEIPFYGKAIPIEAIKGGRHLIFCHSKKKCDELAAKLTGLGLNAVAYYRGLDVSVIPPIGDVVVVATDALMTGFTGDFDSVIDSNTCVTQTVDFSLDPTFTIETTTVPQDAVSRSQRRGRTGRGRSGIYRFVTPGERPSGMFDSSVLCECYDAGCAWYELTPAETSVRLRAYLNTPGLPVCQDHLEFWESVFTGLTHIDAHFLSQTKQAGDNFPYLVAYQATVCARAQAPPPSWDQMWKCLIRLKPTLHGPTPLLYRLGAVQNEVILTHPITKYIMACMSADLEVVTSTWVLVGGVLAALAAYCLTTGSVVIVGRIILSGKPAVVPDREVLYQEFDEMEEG
T1 sequence (P27958 1027-1711 C1454S/C1711G, one chain of several): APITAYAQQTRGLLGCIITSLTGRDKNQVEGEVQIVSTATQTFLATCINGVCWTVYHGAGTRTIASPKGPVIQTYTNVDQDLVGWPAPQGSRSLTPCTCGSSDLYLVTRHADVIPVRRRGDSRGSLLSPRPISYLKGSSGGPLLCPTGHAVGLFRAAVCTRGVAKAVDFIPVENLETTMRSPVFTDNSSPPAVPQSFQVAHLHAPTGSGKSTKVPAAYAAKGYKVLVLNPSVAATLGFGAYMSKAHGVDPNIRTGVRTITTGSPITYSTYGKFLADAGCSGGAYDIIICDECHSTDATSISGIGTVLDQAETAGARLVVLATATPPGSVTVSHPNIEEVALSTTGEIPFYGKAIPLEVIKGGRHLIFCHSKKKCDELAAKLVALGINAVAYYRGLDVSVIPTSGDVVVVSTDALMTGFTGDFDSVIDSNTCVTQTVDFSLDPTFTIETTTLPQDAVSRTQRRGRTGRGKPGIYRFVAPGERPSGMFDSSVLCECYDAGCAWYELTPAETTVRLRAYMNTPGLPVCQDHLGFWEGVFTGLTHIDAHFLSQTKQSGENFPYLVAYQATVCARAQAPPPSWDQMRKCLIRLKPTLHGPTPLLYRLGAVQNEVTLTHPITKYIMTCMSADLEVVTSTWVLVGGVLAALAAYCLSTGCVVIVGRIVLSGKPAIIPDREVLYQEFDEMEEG

Broadly, the pIC50 is −log10 of the IC50, conventionally taken in molar units. Read a low pIC50 as a high IC50. With `C=CC1CC1(NC(=O)[C@@H]1C[C@@H](NC(=O)c2cc(-c3ccccc3)nc3ccccc23)CN1C(=O)[C@@H](NC(=O)CC1CC1)C(C)(C)C)C(=O)NS(=O)(=O)C1CC1` (some centres unmarked) [Compound 9], the figures for the pIC50 in experiment [1] and in experiment [2] were 7.39 and 7.52, respectively.

For the origin of these results see US7601686B2, “Hepatitis C virus inhibitors” (Bristol-Myers Squibb Company, priority 2005, dated 2009).
